Results from patent publication US20070208068A1, “Aqueous Composition Comprising Thiazole Derivative” (R-TECH UENO, LTD. & Astellas Pharma Inc., priority 2004, published 2007).
Values after ≈ are worked out from the molar mass of the structure shown. Each block holds one molecule with its values, some of them ahead of it.

Tests used:
Type in all cases: physicochemical
[1] = Effect of sodium chloride on the solubility of Compound A, B and C (aqueous saturated solutions); conditions: for solubility: thermodynamic from solid; for Precipitation: aqueous saturated solution
Experimental: Sodium chloride was added to thus obtained aqueous saturated solution of Compound A, B, and C respectively in an amount to give 0.4% NaCl solution and the mixture was stirred.
Similarly, the saturated aqueous solution of Compound A-C was added with sodium chloride in an amount to give 0.85% solution, and precipitation and solubility were observed.

[2] = Effect of the additives on solubility of Compound C (aqueous saturated solution)
Experimental: To the saturated solution of Compound C prepared in the same manner as test example 1, glycerin in an amount to give 2.5% solution was added and the mixture was stirred. Similarly, mannitol in an amount to give 3.5% solution, boric acid in an amount to give 2% solution, potassium chloride in an amount to give 0.2% solution, disodium hydrogenphosphate in an amount to give 1% and sodium citrate in an amount to give 1% solution were added to the aqueous saturated solution of Compound C respectively. Precipitation and solubility, i.e. the change of the concentration of Compound C in the solution or supernatant were observed.

[3] = Effect of the additives on the stability of the aqueous solution comprising Compound C, stored at 40° C. in LDPE container
[4] = Effect of the additives on the stability of the aqueous solution comprising Compound D, stored at 40° C. in LDPE container; conditions: Compound D 0.3%
Experimental: Compound D was added with glycerin and distilled water and stirred to give clear aqueous solution (Conc. of Compound D: 0.3%, conc. of glycerin: 2.5%, about pH 6). Thus obtained solution was stored at 40° C. in the LDPE container and concentration of Compound D in the solution was observed over time.

[5] = aqueous saturated solution with 0.4% NaCl, saline or isotonic, conc. in solution or supernatant, NaCl 0.4%
[6] = aqueous saturated solution with 0.85% NaCl, saline or isotonic, conc. in solution or supernatant, NaCl 0.85%
[7] = distilled water (injection grade), aqueous saturated solution in distilled water, NaCl 0%, A about pH 7, B about pH 3 (HCl), C about pH 7 (HCl)
[8] = Boric acid 1.68% and borax 0.018%, 40° C., 1 month
[9] = Boric acid 1.68% and borax 0.018%, 40° C., 3 months
[10] = Boric acid 1.68% and borax 0.018%, 40° C., 6 months

- % Solubulity ([1]; NaCl 0% (reference)): =100%
- % Solubulity ([1]; NaCl 0.4%, vs 0% NaCl): 31%
- % Solubulity ([1]; NaCl 0.85%, vs 0% NaCl): 20%
- solubility [1, 5]: 1110 µg/mL (≈ 3.66 mM)
- solubility [1, 6]: 690 µg/mL (≈ 2.27 mM)
- Precipitation ([1]; conc. of NaCl 0%): no
- Precipitation ([1]; conc. of NaCl 0.4%): yes
- Precipitation ([1]; conc. of NaCl 0.85%): yes
- solubility [1, 7]: 3550 µg/mL (≈ 11.7 mM)
SMILES: CC(=O)Nc1nc(CCc2ccc(NC(=N)N)cc2)cs1 [Compound A]

- % Solubulity ([1]; NaCl 0% (reference)): =100%
- % Solubulity ([1]; NaCl 0.4%, vs 0% NaCl): 16%
- % Solubulity ([1]; NaCl 0.85%, vs 0% NaCl): 8%
- solubility [1, 5]: 1760 µg/mL (≈ 3.73 mM)
- solubility [1, 6]: 860 µg/mL (≈ 1.82 mM)
- Precipitation ([1]; conc. of NaCl 0%): no
- Precipitation ([1]; conc. of NaCl 0.4%): yes
- Precipitation ([1]; conc. of NaCl 0.85%): yes
- solubility [1, 7]: 10700 µg/mL (≈ 22.8 mM)
- B/A ratio ([2]; Boric acid 2%): 100%
- Conc. of C/w additive (B) ([2]; Boric acid 2%): 11590 µg/mL
- Precipitation ([2]; Boric acid 2%): no
- B/A ratio ([2]; Glycerin 2.5%): 95%
- Conc. of C/w additive (B) ([2]; Glycerin 2.5%): 10910 µg/mL
- Precipitation ([2]; Glycerin 2.5%): no
- B/A ratio ([2]; Mannitol 3.5%): 96%
- Conc. of C/w additive (B) ([2]; Mannitol 3.5%): 11050 µg/mL
- Precipitation ([2]; Mannitol 3.5%): no
- B/A ratio ([2]; Potassium Chloride 0.2%): 29%
- Conc. of C/w additive (B) ([2]; Potassium Chloride 0.2%): 3160 µg/mL
- Precipitation ([2]; Potassium Chloride 0.2%): yes
- solubility thermodynamic ([2]; aqueous saturated solution, pH 7, water, thermodynamic from solid, saturated solution before adding Mannitol 3.5%, read-out: Conc. of C w/o additive (A)): 11500 µg/mL (≈ 24.4 mM)
- B/A ratio ([2]; disodium hydrogenphosphate 1%): 24%
- Conc. of C/w additive (B) ([2]; disodium hydrogenphosphate 1%): 2540 µg/mL
- Precipitation ([2]; disodium hydrogenphosphate 1%): yes
- Conc. of C w/o additive (A) ([2]; saturated solution before adding Boric acid 2%): 11510 µg/mL
- Conc. of C w/o additive (A) ([2]; saturated solution before adding Glycerin 2.5%): 11510 µg/mL
- Conc. of C w/o additive (A) ([2]; saturated solution before adding Potassium Chloride 0.2%): 10730 µg/mL
- Conc. of C w/o additive (A) ([2]; saturated solution before adding disodium hydrogenphosphate 1%): 10730 µg/mL
- Conc. of C w/o additive (A) ([2]; saturated solution before adding sodium citrate 1%): 10730 µg/mL
- B/A ratio ([2]; sodium citrate 1%): 4%
- Conc. of C/w additive (B) ([2]; sodium citrate 1%): 480 µg/mL
- Precipitation ([2]; sodium citrate 1%): yes
- Change in Concentration of Compound C (vs the initial conc.) [3, 8]: 104.9%
- Change in Concentration of Compound C (vs the initial conc.) [3, 9]: 106.2%
- Change in Concentration of Compound C (vs the initial conc.) [3, 10]: 108.2%
- Change in Concentration of Compound C (vs the initial conc.) ([3]; Boric acid 1.68% and borax 0.018%, 40° C., Initial): =100%
- Change in Concentration of Compound C (vs the initial conc.) ([3]; Glycerin 2.5%, Compound C 0.3%, about pH 6, 40° C., 1 month): 105.4%
- Change in Concentration of Compound C (vs the initial conc.) ([3]; Glycerin 2.5%, Compound C 0.3%, about pH 6, 40° C., 3 months): 110.6%
- Change in Concentration of Compound C (vs the initial conc.) ([3]; Glycerin 2.5%, Compound C 0.3%, about pH 6, 40° C., 6 months): 112.3%
- Change in Concentration of Compound C (vs the initial conc.) ([3]; Glycerin 2.5%, Compound C 0.3%, about pH 6, 40° C., Initial): =100%
- Change in Concentration of Compound C (vs the initial conc.) ([3]; Mannitol 4.7%, 40° C., 1 month): 103.7%
- Change in Concentration of Compound C (vs the initial conc.) ([3]; Mannitol 4.7%, 40° C., 3 months): 108.4%
- Change in Concentration of Compound C (vs the initial conc.) ([3]; Mannitol 4.7%, 40° C., 6 months): 109.6%
- Change in Concentration of Compound C (vs the initial conc.) ([3]; Mannitol 4.7%, 40° C., Initial): =100%
SMILES: CC(=O)Nc1nc(CCc2ccc(NC(=N)N)cc2)c(Cc2ccc(S(C)(=O)=O)cc2)s1 [Compound C]

- % Solubulity ([1]; NaCl 0% (reference)): =100%
- % Solubulity ([1]; NaCl 0.4%, vs 0% NaCl): 100%
- % Solubulity ([1]; NaCl 0.85%, vs 0% NaCl): 100%
- solubility [1, 5]: 1170 µg/mL (≈ 4.02 mM)
- solubility [1, 6]: 1190 µg/mL (≈ 4.08 mM)
- Precipitation ([1]; conc. of NaCl 0%): no
- Precipitation ([1]; conc. of NaCl 0.4%): no
- Precipitation ([1]; conc. of NaCl 0.85%): no
- solubility [1, 7]: 1120 µg/mL (≈ 3.84 mM)
SMILES: CC(=O)Nc1nc(CCc2ccc(CON)cc2)cs1 [Compound B]

- Change in Concentration of Compound D (vs the initial conc.) [4, 8]: 99.7%
- Change in Concentration of Compound D (vs the initial conc.) [4, 9]: 105.8%
- Change in Concentration of Compound D (vs the initial conc.) [4, 10]: 102.6%
- Change in Concentration of Compound D (vs the initial conc.) ([4]; Boric acid 1.68% and borax 0.018%, 40° C., initial): =100%
- Change in Concentration of Compound D (vs the initial conc.) ([4]; Glycerin 2.5%, about pH 6, 40° C., 1 month): 100.8%
- Change in Concentration of Compound D (vs the initial conc.) ([4]; Glycerin 2.5%, about pH 6, 40° C., 3 months): 107.7%
- Change in Concentration of Compound D (vs the initial conc.) ([4]; Glycerin 2.5%, about pH 6, 40° C., 6 months): 104.4%
- Change in Concentration of Compound D (vs the initial conc.) ([4]; Glycerin 2.5%, about pH 6, 40° C., initial): =100%
SMILES: CC(=O)Nc1nc(CCc2ccc(NC(=N)N)cc2)c(Cc2ccc(S(C)(=O)=O)cc2)s1.Cl [Compound D]
